The values that follow come from US12098144B2, “Piperazine indazole glucocorticoid receptor antagonists” (Corcept Therapeutics Incorporated, priority 2021, dated 2024).

The target in the experiment is T1, glucocorticoid receptor (Homo sapiens, UniProt P04150).
T1 construct: endogenous in cells; ATCC cat
T1 sequence (P04150 1-777): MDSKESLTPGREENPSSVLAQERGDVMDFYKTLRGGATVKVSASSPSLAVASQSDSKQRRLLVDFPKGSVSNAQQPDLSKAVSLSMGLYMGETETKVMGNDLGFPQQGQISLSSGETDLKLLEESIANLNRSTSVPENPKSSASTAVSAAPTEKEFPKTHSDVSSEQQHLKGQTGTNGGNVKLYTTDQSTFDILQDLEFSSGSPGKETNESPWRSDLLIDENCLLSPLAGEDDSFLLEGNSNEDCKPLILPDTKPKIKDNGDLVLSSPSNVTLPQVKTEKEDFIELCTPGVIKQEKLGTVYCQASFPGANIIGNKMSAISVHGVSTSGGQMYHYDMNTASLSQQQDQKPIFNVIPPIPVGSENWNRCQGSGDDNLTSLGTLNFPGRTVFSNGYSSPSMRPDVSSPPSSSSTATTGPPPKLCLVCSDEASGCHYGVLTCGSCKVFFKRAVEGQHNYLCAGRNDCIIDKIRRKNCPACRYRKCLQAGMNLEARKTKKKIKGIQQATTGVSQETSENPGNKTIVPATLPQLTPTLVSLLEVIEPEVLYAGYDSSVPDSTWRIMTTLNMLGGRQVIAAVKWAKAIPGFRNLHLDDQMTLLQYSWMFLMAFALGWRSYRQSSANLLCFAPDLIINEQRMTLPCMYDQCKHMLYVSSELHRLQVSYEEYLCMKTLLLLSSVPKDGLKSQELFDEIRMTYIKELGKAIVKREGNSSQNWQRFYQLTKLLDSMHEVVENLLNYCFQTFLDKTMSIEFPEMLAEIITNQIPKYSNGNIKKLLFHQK
The experiment is described as follows: Hep G2 TAT Ki: inhibition of dexamethasone-induced TAT in HepG2 cells (96 well). The class given is cell-based. To be noted: challenge of 100 nM dexamethasone, IC50 converted to Ki by Cheng and Prusoff equation. The protocol:
Glucocorticoid mediated activation of TAT occurs by transactivation of glucocorticoid response elements in the TAT promoter by glucocorticoid receptor-agonist complex.
HepG2 cells were cultured using MEME media supplemented with 10% (v/v) foetal bovine serum; 2 mM L-glutamine and 1% (v/v) NEAA at 37° C., 5%/95% (v/v) CO2/air.
Compounds were serially half log diluted in 100% (v/v) dimethylsulphoxide from a 10 mM stock.
HepG2 cells were then lysed with 30 μl of cell lysis buffer containing a protease inhibitor cocktail for 15 minutes at 4° C. […] After 2 hours incubation at 37° C. the reaction was terminated by the addition of 15 μl of 10M aqueous potassium hydroxide solution, and the plates incubated for a further 30 minutes at 37° C.
[compound] and fitting the data to a 4 parameter logistic equation.
Usually Ki stands for the dissociation constant of the complex between target and ligand, obtained from inhibition or displacement. Low readings indicate tighter binding, high ones weaker binding. In turn, `Cc1cc2c(cnn2-c2ccc(F)cc2)cc1C1CN(S(=O)(=O)c2cnn(C)n2)CCN1CC1CCC1` (single isomer, unassigned) [Example 77, 5-(1-(cyclobutylmethyl)-4-((2-methyl-2H-1,2,3-triazol-4-yl)sulfonyl)piperazin-2-yl)-1-(4-fluorophenyl)-6-methyl-1H-indazole] registered a Ki of 13 nM.
Next, `Cc1cc2c(cnn2-c2ccc(F)cc2)cc1C1CN(S(=O)(=O)c2cnn(C)n2)CCN1CC1CCCC1` (single isomer, unassigned) [Example 78, 5-(1-(cyclopentylmethyl)-4-((2-methyl-2H-1,2,3-triazol-4-yl)sulfonyl)piperazin-2-yl)-1-(4-fluorophenyl)-6-methyl-1H-indazole]: 13 nM; `Cc1cc2c(cnn2-c2ccc(F)cc2)cc1C1CN(S(=O)(=O)c2cnn(C)n2)CCN1CC1(F)CC1` (single isomer, unassigned) [Example 79, 5-(1-((1-fluorocyclopropyl)methyl)-4-((2-methyl-2H-1,2,3-triazol-4-yl)sulfonyl)piperazin-2-yl)-1-(4-fluorophenyl)-6-methyl-1H-indazole]: 29 nM; `Cc1cc2c(cnn2-c2ccc(F)cc2)cc1C1CN(S(=O)(=O)c2cnn(C)n2)CCN1Cc1ccn(C)n1` (single isomer, unassigned) [Example 80, 1-(4-fluorophenyl)-6-methyl-5-(1-((1-methyl-1H-pyrazol-3-yl)methyl)-4-((2-methyl-2H-1,2,3-triazol-4-yl)sulfonyl)piperazin-2-yl)-1H-indazole]: 150 nM.
Turning to `Cc1cc2c(cnn2-c2ccc(F)cc2)cc1C1CN(S(=O)(=O)c2cnn(C)n2)CCN1Cc1ccon1` (single isomer, unassigned) [Example 81, 3-((2-(1-(4-fluorophenyl)-6-methyl-1H-indazol-5-yl)-4-((2-methyl-2H-1,2,3-triazol-4-yl)sulfonyl)piperazin-1-yl)methyl)isoxazole], the Ki was found to be 73 nM.
`Cc1cc2c(cnn2-c2ccc(F)cc2)cc1C1CN(S(=O)(=O)c2cnn(C)n2)CCN1CC(C)(C)CO` (single isomer, unassigned) [Example 82, 3-(2-(1-(4-fluorophenyl)-6-methyl-1H-indazol-5-yl)-4-((2-methyl-2H-1,2,3-triazol-4-yl)sulfonyl)piperazin-1-yl)-2,2-dimethylpropan-1-ol] had a Ki of 43 nM.
The compound `Cc1cc2c(cnn2-c2ccc(F)cc2)cc1C1CN(S(=O)(=O)c2cnn(C)n2)CCN1CC1(C(F)(F)F)CC1` (single isomer, unassigned) [Example 83, 1-(4-fluorophenyl)-6-methyl-5-(4-((2-methyl-2H-1,2,3-triazol-4-yl)sulfonyl)-1-((1-(trifluoromethyl)cyclopropyl)methyl)piperazin-2-yl)-1H-indazole] had a Ki of 33 nM.
As for `Cc1cc2c(cnn2-c2ccc(F)cc2)cc1C1CN(S(=O)(=O)c2cnn(C)n2)CCN1CC1CCOC1` (single isomer, unassigned) [Example 85, 1-(4-fluorophenyl)-6-methyl-5-(4-((2-methyl-2H-1,2,3-triazol-4-yl)sulfonyl)-1-((tetrahydrofuran-3-yl)methyl)piperazin-2-yl)-1H-indazole], the figure is 29 nM.
Regarding `Cc1cc2c(cnn2-c2ccc(F)cc2)cc1C1CN(S(=O)(=O)c2ncn(C)n2)CCN1CC(C)C` (single isomer, unassigned) [Example 92, 1-(4-fluorophenyl)-5-(1-isobutyl-4-((1-methyl-1H-1,2,4-triazol-3-yl)sulfonyl)piperazin-2-yl)-6-methyl-1H-indazole], the Ki came to 86 nM. This Ki lies about 3-fold higher than the previous one.
Next, `Cc1cc2c(cnn2-c2ccc(F)cc2)cc1C1CN(S(=O)(=O)c2nn(C)nc2C)CCN1CC(C)C` (single isomer, unassigned) [Example 93, 5-(4-((2,5-dimethyl-2H-1,2,3-triazol-4-yl)sulfonyl)-1-isobutylpiperazin-2-yl)-1-(4-fluorophenyl)-6-methyl-1H-indazole]: 36 nM.
